# Measurements reported in patent publication US9353090B2, “Heterocyclic carboxylic acids as activators of soluble guanylate cyclase” (Boehringer Ingelheim International GmbH, priority 2014, dated 2016).
# Assays:
# physchem = conditions: kinetic from dmso stock
# [1] = Human liver microsome (HLM) metabolic stability assay; type: in vitro ADME; conditions: human liver microsomes
# Experimental: The 5 time point, high-throughput human liver microsome (HLM) metabolic stability assay is designed to determine in vitro compound metabolism. Compounds are incubated with HLMs at a concentration of 1 uM, at 37° C., for a total of 60 min. The percent of compound remaining at 5, 15, 30, and 60 min is used to calculate the t1/2 (min), CLint (mL/min/kg), CLh (mL/min/kg), and % Qh. The assay is based on a 96-well format and can accommodate up to 92 compounds per plate (n=1).
# Using the 96-well multi-channel head, the Biomek FX, equipped with a Peltier heating block/shaker, is programmed to accomplish the following steps: • 1. Pipette 175 uL of 1.15 mg/mL microsomes into each of the 96 conical inserts (Analytical Sales and Products, catalog number 96PL05) that fit into the plate of the Peltier heating block/shaker (the incubation plate) • 2. Add 5 uL of compounds from the assay plate to the microsomes and shake the mixture at 600 rpm at 42.1° C. for 10 min (a setting of 42.1° C. on the Peltier is required for the samples to incubate at 37° C.) • 3. After 10 min, prompt the user to add the NADPH plate to the deck and add 20 uL from the NADPH plate to the incubation plate to start the reaction • 4. Add 215 uL of 100%, cold acetonitrile containing an internal standard(s) to a 0 minute, 5 minute, 15 minute, 30 minute, and 60 minute “quench” plate • 5. At 0 min, 5 min, 15 min, 30 min, and 60 min into the incubation, aspirate 12 uL from the incubation mixture and add it to the quench solution to stop the reaction • 6. Add 185 uL HPLC grade water to each well of the 0, 5, 15, 30 and 60 minute quench plates to dilute compounds to the appropriate concentration for the mass spectrometer
# After all time points are collected, the quench plates are sealed with 96-well pierceable plate mats or heat sealing foil and centrifuged at 3000 rpm for 15 min to pellet the microsomes.
# The plates are analyzed using LC/MS/MS with electron spray ionization (ESI) and the previously determined MRM transitions. The LC method includes the following parameters:
# Using an Excel template in Activitybase, the peak areas corresponding to 5, 15, 30 and 60 min are compared to the peak area at 0 min to calculate the percent of remaining compound using the following equation:
# Percent compound remaining=(AUC at Time t min/AUC at Time 0 min)×100 where t=0, 5, 15, 30 or 60 min.
# Time (min) is plotted against the natural logarithm (Ln) of the percent compound remaining to determine the slope. The slope is used to calculate t1/2 (min) using the equation, t1/2=0.693/slope.
# Clh, Hepatic clearance • Hepatic flow*f(u)*Clint/(hepatic flow+f(u)*Clint)
# Qh, % Hepatic blood flow • (Clh/Hepatic flow)*100
# Preferred compounds have % Qh values of less than 24.
# [2] = biological target: human soluble guanylate cyclase alpha 1 and beta 1 subunits (sGC) (Homo sapiens (Human), UniProt Q02108+Q02153); test: sGC cellular activator assay (cGMP, HTRF), in the presence and absence of 50% human serum; type: cell-based; conditions: CHO cells stably expressing human sGC alpha 1/beta 1, preincubated with 40 microM ODQ; cGMP by HTRF; Table 2 does not state whether with or without 50% human serum
# Experimental: The sGC cellular activator assay is performed in the presence and absence of 50% human serum (HS) using Chinese hamster ovary cells that have been stably transfected to express the human soluble guanylate cyclase alpha 1 and beta 1 subunits (sGC). Cells are preincubated with 40 microM 1H-[1,2,4]oxadiazolo[4,3-a]quinoxalin-1-one (ODQ), an sGC inhibitor, for one h in buffer containing 0.1% bovine serum albumin and 3-isobutyl-1-methylxanthine (IBMX). Concentration response curves are prepared for test compounds in DMSO. An intermediate dilution of the compounds is performed in either buffer containing IBMX or type AB HS containing IBMX. Diluted compounds are added to cells and they are incubated at room temperature for thirty min. cGMP is measured using a CisBio homogeneous time resolved fluorescence kit and the EC50 is calculated for each compound.
# Representative compounds of the present invention were tested for activity the above assay. Preferred compounds have an EC50 of <1,000 nM in the above assay and more preferred compounds have an EC50<200 nM.
# [3] = pH 2.2, aqueous buffer, Solubility (pH 2.2)
# [4] = pH 4.5, aqueous buffer, Solubility (pH 4.5)
# [5] = pH 6.8, aqueous buffer, Solubility (pH 6.8)
# Chain of human soluble guanylate cyclase alpha 1 and beta 1 subunits (sGC) (Q02108 whole entry partner): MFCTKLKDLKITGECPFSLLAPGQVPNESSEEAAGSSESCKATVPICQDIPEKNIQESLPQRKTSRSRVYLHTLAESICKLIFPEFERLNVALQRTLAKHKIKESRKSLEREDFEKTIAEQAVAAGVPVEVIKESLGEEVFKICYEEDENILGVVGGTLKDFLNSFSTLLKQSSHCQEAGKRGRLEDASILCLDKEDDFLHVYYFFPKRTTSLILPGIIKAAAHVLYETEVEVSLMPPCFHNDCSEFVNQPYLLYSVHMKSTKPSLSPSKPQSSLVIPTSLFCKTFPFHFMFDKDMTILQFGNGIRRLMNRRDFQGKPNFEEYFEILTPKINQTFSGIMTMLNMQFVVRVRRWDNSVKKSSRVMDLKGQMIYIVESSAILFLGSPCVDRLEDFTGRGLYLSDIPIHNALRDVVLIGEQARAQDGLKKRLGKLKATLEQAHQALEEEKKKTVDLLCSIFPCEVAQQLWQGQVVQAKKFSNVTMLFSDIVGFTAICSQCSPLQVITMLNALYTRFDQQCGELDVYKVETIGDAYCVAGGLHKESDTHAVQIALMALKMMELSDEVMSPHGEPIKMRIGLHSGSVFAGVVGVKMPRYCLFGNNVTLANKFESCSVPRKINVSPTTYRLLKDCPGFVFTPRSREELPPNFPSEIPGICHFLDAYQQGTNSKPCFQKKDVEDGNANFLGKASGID
# Chain of human soluble guanylate cyclase alpha 1 and beta 1 subunits (sGC) (Q02153 whole entry): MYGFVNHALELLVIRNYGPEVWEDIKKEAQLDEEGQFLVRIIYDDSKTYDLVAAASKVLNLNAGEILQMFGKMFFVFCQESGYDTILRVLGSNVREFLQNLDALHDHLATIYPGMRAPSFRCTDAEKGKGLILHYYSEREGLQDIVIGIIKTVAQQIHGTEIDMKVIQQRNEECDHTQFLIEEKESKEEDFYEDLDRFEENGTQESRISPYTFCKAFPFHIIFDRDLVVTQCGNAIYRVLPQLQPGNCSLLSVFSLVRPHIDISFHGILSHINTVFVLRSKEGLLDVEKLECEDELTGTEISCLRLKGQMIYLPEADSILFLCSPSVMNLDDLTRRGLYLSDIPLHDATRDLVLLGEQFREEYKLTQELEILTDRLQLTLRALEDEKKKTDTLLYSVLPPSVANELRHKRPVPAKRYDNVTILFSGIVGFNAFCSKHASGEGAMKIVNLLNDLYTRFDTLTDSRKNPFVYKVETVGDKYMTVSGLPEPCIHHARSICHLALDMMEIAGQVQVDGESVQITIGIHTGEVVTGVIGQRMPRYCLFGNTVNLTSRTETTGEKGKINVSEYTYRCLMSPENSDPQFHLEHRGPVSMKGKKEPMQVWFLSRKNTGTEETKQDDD
SMILES,solubility at 24 h (physchem; [3]) [µg/mL],solubility at 24 h (physchem; [4]) [µg/mL],solubility at 24 h (physchem; [5]) [µg/mL],"Metabolic stability (Qh %), % hepatic blood flow [1] [%]",EC50 [2] [nM]
COC[C@H]1N(c2cccc(-c3cccc(C)c3OCc3ccc4c(c3)CCN(C3CCOC3)C4)n2)C[C@@H]2C[C@@]21C(=O)O (mixture of isomers) [Compound 45],140,100,81,<24,76
Cc1ccc(OCc2cc(C)c3c(c2)CCN(C2CCCOC2)C3)c(-c2csc(N3CC[C@@]4(C(=O)O)C[C@H]4C3)n2)c1 (mixture of isomers) [Compound 121],110,14,0.69,<24,10
Cc1ccc(OCc2cc(C)c3c(c2)CCN(C2CCOC2)C3)c(-c2csc(N3CC[C@@]4(C(=O)O)C[C@H]4C3)n2)c1 (mixture of isomers) [Compound 122],120,18,1.6,43,11
"COC[C@H]1N(c2cccc(-c3cccc(C)c3OCc3cc(C)c4c(c3)CCN(C3CCOC3)C4)n2)C[C@@H]2C[C@@]21C(=O)O (single isomer, unassigned) [Compound 51]",110,94,74,28,27
"O=C(O)[C@@]12CCN(c3cccc(-c4ccccc4OCc4ccc5c(c4)CCN(C4CCOCC4)C5)n3)C[C@@H]1C2 [Compound 1, (1R,6S)-3-(6-{2-[2-(Tetrahydro-pyran-4-yl)-1,2,3,4-tetrahydro-isoquinolin-6-ylmethoxy]-phenyl}-pyridin-2-yl)-3-aza-bicyclo[4.1.0]heptane-6-carboxylic acid]",140,120,57,<24,7
O=C(O)[C@@]12CCN(c3cccc(-c4ccccc4OCc4ccc5c(c4)CCN(C4COC4)C5)n3)C[C@@H]1C2 [Compound 2],110,90,58,<24,11
Cc1c(COc2ccccc2-c2cccc(N3CC[C@@]4(C(=O)O)C[C@H]4C3)n2)ccc2c1CCN(C1COC1)C2 [Compound 4],140,120,65,<24,4
Cc1c(COc2ccccc2-c2cccc(N3CC[C@@]4(C(=O)O)C[C@H]4C3)n2)ccc2c1CCN(CC1COCCO1)C2 (some centres unmarked) [Compound 5],160,140,79,35,3
Cc1c(COc2ccccc2-c2cccc(N3CC[C@@]4(C(=O)O)C[C@H]4C3)n2)ccc2c1CCN(C1CCOCC1)C2 [Compound 6],160,130,60,54,3
Cc1c(COc2ccccc2-c2cccc(N3CC[C@@]4(C(=O)O)C[C@H]4C3)n2)ccc2c1CCN([C@H]1CCOC1)C2 [Compound 7],150,120,59,45,11
Cc1c(COc2ccccc2-c2cccc(N3CC[C@@]4(C(=O)O)C[C@H]4C3)n2)ccc2c1CCN([C@@H]1CCOC1)C2 [Compound 8],150,110,44,49,12
Cc1c(COc2ccccc2-c2cccc(N3CC[C@@]4(C(=O)O)C[C@H]4C3)n2)ccc2c1CCN(C[C@H]1COCCO1)C2 [Compound 9],130,110,53,37,1
Cc1c(COc2ccccc2-c2cccc(N3CC[C@@]4(C(=O)O)C[C@H]4C3)n2)ccc2c1CCN(C[C@@H]1COCCO1)C2 [Compound 10],130,110,55,32,9
